Experimental findings from patent publication US11873290B2, “Pyridazinone compounds and uses thereof” (Edgewise Therapeutics, Inc., priority 2018, dated 2024) are described below.

pIC50: −log10 of the molar value.

This test concerns the target skeletal myofibrils (myosin ATPase activity). Briefly: Skeletal Myofibril ATPase Assay. In kind it is biochemical. Particulars: PK-LDH coupled, absorbance at 340 nm. On the procedure: Overview: Myosin ATPase activity is assessed by using a coupled reaction system, in which ADP generated by the myosin ATPase function is coupled to the disappearance of NADH through the pyruvate kinase/lactate dehydrogenase (PK-LDH) system. Myosin ATPase activity produces ADP, which is used as a substrate for PK to produce pyruvate and regenerate ATP. The pyruvate is then used as a substrate by LDH to oxidize NADH to NAD+. The rate of the reaction is monitored through the time-dependent disappearance of NADH using absorbance at 340 nm. Inhibition of ATPase activity by the assayed compounds is indicated by a reduced rate of NADH loss, relative to vehicle-treated controls, over the experimental time window. To assess the selectivity of the assayed compounds for skeletal myofibrils, the compounds are counter-screened in cardiac myofibrils.
Materials: The following stock solutions and reagents were used in the Skeletal Myofibril ATPase Assay:
Stock Solutions of pCa buffer. Combine PIPES, CaCl2, and EGTA solutions with 70 mL of water. Adjust pH to 7.0 and bring final volume to 100 mL.
Skeletal Myofibril ATPase Assay Procedure: BSA, ATP, NADH, PEP, and DTT solutions were thawed at room temperature, then transferred to ice. Pellet-frozen myofibrils (approximately twice the required volume) were transferred into a sufficiently large tube and capped. Myofibrils were thawed by rolling in a water bath for approximately 15 min at room temperature and cooled on ice. Buffers A and B were prepared by adjusting volumes as necessary for required number of wells and stored on ice. 0.5 μL of the compounds to be assayed were added into wells of a 384-well plate. Buffers A and B were mixed by inversion immediately prior to use, then 25 μL of each was dispensed using a Multidrop dispenser (Buffer A first, then Buffer B). The absorbance within the wells was measured at 340 nm, using a kinetic protocol in which the wells are read every 1.5-2 min for 1 h. The reaction rate was qualitatively assessed by subtracting the minimum absorbance value from the maximum value for each well, using either the SoftMax Pro plate reader software or a spreadsheet program such as Excel. Using GraphPad Prism 8.0, the data was normalized, with 100% activity defined as the absorbance change in the 1% DMSO vehicle wells and 0% assigned to no change in absorbance over the course of the experiment. The normalized data were fit to a variable-slope four-parameter logistic model, constraining the bottom to be 0 or greater. Compounds of Table 1 to 4 were tested and results of the assay appear in Table 5 herein. A=IC50 is less than or equal to 10 μM; B=IC50 is greater than 10 μM and less than 100 μM; C=IC50 is greater than 100 μM; […].
In the case of `O=c1ccc(-c2cnc(OCC(F)(F)F)nc2)nn1Cc1cncc(Cl)c1` [Compound 1, 2-((5-chloropyridin-3-yl)methyl)-6-(2-(2,2,2-trifluoroethoxy)pyrimidin-5-yl)pyridazine-3(2H)-one], the pIC50 (commonly the IC50 on a negative log10 scale, so that one unit is a factor of ten) is greater than 5.00.

The molecule `O=c1ccc(-c2ccc(OC(F)F)nc2)nn1Cc1cncc(Cl)c1` [Compound 2] gave a negative logarithm of the IC50 (pIC50) greater than 5.00.

`O=c1ccc(-c2cnc(OCC(F)(F)F)nc2)nn1Cc1cncc(F)c1` [Compound 6, 2-((5-fluoropyridin-3-yl)methyl)-6-(2-(2,2,2-trifluoroethoxy)pyrimidin-5-yl)pyridazine-3(2H)-one]: the pIC50 was greater than 5.00.

For the molecule `O=c1ccc(-c2ccc(OC(F)F)nc2)nn1Cc1cncc(F)c1` [Compound 9], the pIC50 was greater than 5.00.

With `O=c1ccc(-c2ccc(OC(F)F)nc2)nn1Cc1cccnc1` [Compound 10], the pIC50 is 4.00 to 5.00.

In turn, `O=c1ccc(-c2ccc(OC(F)F)nc2)nn1Cc1nnc(-c2ccc(F)cc2)s1` [Compound 17] showed a negative logarithm of the IC50 (pIC50) greater than 5.00.

`O=c1ccc(-c2ccc(OC(F)F)nc2)nn1Cc1nnc(-c2ccccc2)s1` [Compound 22]: the pIC50 is greater than 5.00.

Consider `O=c1ccc(-c2ccc(OC(F)F)nc2)nn1Cc1cn[nH]c1-c1ccccc1` [Compound 23, 6-(6-(difluoromethoxy)pyridin-3-yl)-2-((5-phenyl-1H-pyrazol-4-yl)methyl)pyridazin-3(2H)-one], for which the pIC50 was less than 4.00.

`O=c1ccc(-c2ccc(OC(F)F)nc2)nn1Cc1ocnc1-c1ccccc1` [Compound 24, 6-(6-(difluoromethoxy)pyridin-3-yl)-2-((4-phenyloxazol-5-yl)methyl)pyridazin-3(2H)-one] showed a negative-log IC50 (pIC50) of less than 4.00.

`O=c1ccc(-c2ccc(OC(F)F)nc2)nn1Cc1[nH]ncc1-c1ccccc1` [Compound 25, 6-(6-(difluoromethoxy)pyridin-3-yl)-2-((4-phenyl-1H-pyrazol-5-yl)methyl) pyridazin-3(2H)-one] showed a negative logarithm of the IC50 (pIC50) of less than 4.00.

Molecule `O=c1ccc(-c2cnc(OCC(F)(F)F)nc2)nn1Cc1cc(C(F)F)no1` [Compound 26, 2-((3-(difluoromethyl)isoxazol-5-yl)methyl)-6-(2-(2,2,2-trifluoroethoxy)pyrimidin-5-yl)pyridazin-3(2H)-one] showed a pIC50 greater than 5.00.

Molecule `O=c1ccc(-c2cnc(OCC(F)(F)F)nc2)nn1Cc1cc(-c2ccccc2)no1` [Compound 27, 2-((3-phenylisoxazol-5-yl)methyl)-6-(2-(2,2,2-trifluoroethoxy)pyrimidin-5-yl)pyridazin-3(2H)-one] gave a negative-log IC50 (pIC50) greater than 5.00.

On to `CC1CCCN1c1ncc(-c2ccc(=O)n(Cc3cncc(F)c3)n2)cn1` (stereo not drawn) [Compound 28, 2-((5-fluoropyridin-3-yl)methyl)-6-(2-(2-methylpyrrolidin-l-yl)pyrimidin-5-yl)pyridazin-3(2H)-one], for which the pIC50 is greater than 5.00.

`O=c1ccc(-c2cnc(OCC(F)(F)F)nc2)nn1Cc1cc(-c2ccccn2)no1` [Compound 30, 2-((3-(pyridin-2-yl)isoxazol-5-yl)methyl)-6-(2-(2,2,2-trifluoroethoxy)pyrimidin-5-yl)pyridazin-3(2H)-one]: the negative logarithm of the IC50 (pIC50) is greater than 5.00.

Take `O=c1ccc(-c2cnc(OCC(F)(F)F)nc2)nn1Cc1cc(C2CC2)no1` [Compound 31, 2-((3-cyclopropylisoxazol-5-yl)methyl)-6-(2-(2,2,2-trifluoroethoxy)pyrimidin-5-yl)pyridazin-3(2H)-one]: the negative-log IC50 (pIC50) was greater than 5.00.

`NC(=O)c1cc(Cn2nc(-c3cnc(OCC(F)(F)F)nc3)ccc2=O)on1` [Compound 32, 5-((6-oxo-3-(2-(2,2,2-trifluoroethoxy)pyrimidin-5-yl)pyridazin-1(6H)-yl)methyl)isoxazole-3-carboxamide]: the negative-log IC50 (pIC50) is greater than 5.00.

Molecule `CC(=O)c1cc(Cn2nc(-c3cnc(OCC(F)(F)F)nc3)ccc2=O)on1` [Compound 33, 2-((3-acetylisoxazol-5-yl)methyl)-6-(2-(2,2,2-trifluoroethoxy)pyrimidin-5-yl)pyridazin-3(2H)-one] gave a pIC50 greater than 5.00.

Regarding `Cc1cnoc1Cn1nc(-c2cnc(OCC(F)(F)F)nc2)ccc1=O` [Compound 34, 2-((4-methylisoxazol-5-yl)methyl)-6-(2-(2,2,2-trifluoroethoxy)pyrimidin-5-yl)pyridazin-3(2H)-one], the negative logarithm of the IC50 (pIC50) is greater than 5.00.

Molecule `CCOC(=O)c1cc(Cn2nc(-c3cnc(OCC(F)(F)F)nc3)ccc2=O)on1` [Compound 37, ethyl 5-((6-oxo-3-(2-(2,2,2-trifluoroethoxy)pyrimidin-5-yl)pyridazin-1(6H)-yl)methyl) isoxazole-3-carboxylate] showed a pIC50 greater than 5.00.

In the case of `O=c1ccc(-c2cnc(OCC(F)(F)F)nc2)nn1Cc1nnc(-c2ccccn2)s1` [Compound 38, 2-((5-(pyridin-2-yl)-1,3,4-thiadiazol-2-yl)methyl)-6-(2-(2,2,2-trifluoroethoxy)pyrimidin-5-yl)pyridazin-3(2H)-one], the pIC50 was greater than 5.00.

Consider `Cc1c(-c2ccccc2)noc1Cn1nc(-c2cnc(OCC(F)(F)F)nc2)ccc1=O` [Compound 39, 2-((4-methyl-3-phenylisoxazol-5-yl)methyl)-6-(2-(2,2,2-trifluoroethoxy)pyrimidin-5-yl)pyridazin-3(2H)-one], for which the negative logarithm of the IC50 (pIC50) is greater than 5.00.

In the case of `O=c1ccc(-c2cnc(OCC(F)(F)F)nc2)nn1Cc1nnc(-c2cccnc2)s1` [Compound 40, 2-((5-(pyridin-3-yl)-1,3,4-thiadiazol-2-yl)methyl)-6-(2-(2,2,2-trifluoroethoxy)pyrimidin-5-yl)pyridazin-3(2H)-one], the pIC50 was greater than 5.00.

`Cc1ccc(Cn2nc(-c3cnc(OCC(F)(F)F)nc3)ccc2=O)nn1` [Compound 41, 2-((6-methylpyridazin-3-yl)methyl)-6-(2-(2,2,2-trifluoroethoxy)pyrimidin-5-yl)pyridazin-3(2H)-one]: the pIC50 was greater than 5.00.

In turn, `O=c1ccc(-c2cnc(OCC(F)(F)F)nc2)nn1Cc1ccnc(O)c1` [Compound 42, 2-((2-hydroxypyridin-4-yl)methyl)-6-(2-(2,2,2-trifluoroethoxy)pyrimidin-5-yl)pyridazin-3(2H)-one] gave a pIC50 of 4.00 to 5.00.

Turning to `O=c1ccc(-c2cnc(OCC(F)(F)F)nc2)nn1Cc1cc(CO)no1` [Compound 43, 2-((3-(hydroxymethyl)isoxazol-5-yl)methyl)-6-(2-(2,2,2-trifluoroethoxy)pyrimidin-5-yl)pyridazin-3(2H)-one], the pIC50 was 4.00 to 5.00.

For `O=c1ccc(-c2cnc(OCC(F)(F)F)nc2)nn1Cc1nnc(-c2ccnc(O)c2)s1` [Compound 44, 2-((5-(2-hydroxypyridin-4-yl)-1,3,4-thiadiazol-2-yl)methyl)-6-(2-(2,2,2-trifluoroethoxy)pyrimidin-5-yl)pyridazin-3(2H)-one], the pIC50 is 4.00 to 5.00.

Turning to `O=c1ccc(-c2cnc(OCC(F)(F)F)nc2)nn1Cc1nnc(-c2ccc(O)nc2)s1` [Compound 45, 2-((5-(6-hydroxypyridin-3-yl)-1,3,4-thiadiazol-2-yl)methyl)-6-(2-(2,2,2-trifluoroethoxy)pyrimidi-5-yl)pyridazin-3(2H)-one], the pIC50 was 4.00 to 5.00.

Take `O=c1ccc(-c2cnc(OCC(F)(F)F)nc2)nn1Cc1cccc(O)n1` [Compound 46, 2-((6-hydroxypyridin-2-yl)methyl)-6-(2-(2,2,2-trifluoroethoxy)pyrimidin-5-yl)pyridazin-3(2H)-one]: the pIC50 is less than 4.00.

`O=c1ccc(-c2cnc(OCC(F)(F)F)nc2)nn1Cc1cccnc1O` [Compound 47, 2-((2-hydroxypyridin-3-yl)methyl)-6-(2-(2,2,2-trifluoroethoxy)pyrimidin-5-yl)pyridazin-3(2H)-one] gave a negative logarithm of the IC50 (pIC50) of less than 4.00.

In the case of `Cc1noc(Cn2nc(-c3cnc(OCC(F)(F)F)nc3)ccc2=O)c1C` [Compound 49, 2-((3,4-dimethylisoxazol-5-yl)methyl)-6-(2-(2,2,2-trifluoroethoxy)pyrimidin-5-yl)pyridazin-3(2H)-one], the pIC50 was less than 4.00.

In turn, `CN(CC(F)(F)F)c1ncc(-c2ccc(=O)n(Cc3cncc(F)c3)n2)cn1` [Compound 50, 2-((5-fluoropyridin-3-yl)methyl)-6-(2-(methyl(2,2,2-trifluoroethyl)amino)pyrimidin-5-yl)pyridazin-3(2H)-one] gave a negative-log IC50 (pIC50) greater than 5.00.

Regarding `N#Cc1cncc(Cn2nc(-c3cnc(OCC(F)(F)F)nc3)ccc2=O)c1` [Compound 51, 5-((6-oxo-3-(2-(2,2,2-trifluoroethoxy)pyrimidin-5-yl)pyridazin-1(6H)-yl)methyl)nicotinonitrile], the negative-log IC50 (pIC50) is greater than 5.00.
